A short description of one series: Plasma concentrations of. Conditions: CRPS patient, (R,S)-Ket 40 mg/h continuous infusion, morning of Day 3; estimated using the standard curve for (2S,6S); (2R,6R)-hydroxynorketamine.
The nature of a further series: Urine concentrations of. The series is classed as in vivo, human. Conditions: CRPS patient, (R,S)-Ket 40 mg/h continuous infusion, morning of Day 3.
The nature of the next series: Relative. The series is classed as in vivo, human. Conditions: CRPS patient urine, Day 3, AGP-CSP.
The conditions of series [1]: cited from earlier work.
For series [2] the following is noted: cited from earlier work. This is another data set of the same source.
Setting [3] is: estimated using the standard curve for (2S,6S), (2R,6R)-hydroxynorketamine.
[4] abbreviates: estimated using the standard curve for (2S,6S)-hydroxyketamine.

Structures are written as SMILES.

Consider `NC1(c2ccccc2Cl)CC(O)CCC1=O` (single isomer, unassigned) [Peak 4e], for which the “Plasma” value in the series “Plasma concentrations of” was 160 ng/mL. The “Urine” value in “Urine concentrations of” (setting [3]) is 515 ng/mL.

For `N[C@]1(c2ccccc2Cl)CC[C@@H](O)CC1=O` (single isomer, unassigned) [Peak 4f], the “Plasma” value in the series “Plasma concentrations of” is 141 ng/mL. Besides, the “Urine (ng/ml)” value in the series “Urine concentrations of” (setting [3]) is reported as 4,099 ng/ml. For `CNC1(c2ccccc2Cl)CCCCC1=O` (single isomer, unassigned; peak 1) [Peak 1, (R.S)-Ketamine], the “relative enantiomeric urine concentration (R)-/(S)-” value in “Relative” amounted to 1.0. For the molecule `N[C@@]1(c2ccccc2Cl)CCC[C@@H](O)C1=O` (single isomer, unassigned; peak 4a) [Peak 4a], the “concentration in the CNS” value in series [1] is “reaches significant concentration in the CNS”. Besides, in series [2], the anesthetic activity entry is “no anesthetic activity”. On to `NC1(c2ccccc2Cl)CCCC(O)C1=O` (single isomer, unassigned; peak 4b) [Peak 4b], for which the “Plasma” value in “Plasma concentrations of” is 881 ng/mL. Besides, in the series “Urine concentrations of” (setting [3]), the “Urine” value was 572 ng/mL. For `N[C@]1(c2ccccc2Cl)CC[C@H](O)CC1=O` (single isomer, unassigned; peak 4c) [Peak 4c], the “Plasma” value in the series “Plasma concentrations of” is 245 ng/mL. Besides, the “Urine” value in the series “Urine concentrations of” (setting [3]) was 940 ng/mL. Taken in the same sequence, the figures for `N[C@]1(c2ccccc2Cl)C[C@@H](O)CCC1=O` (single isomer, unassigned; peak 4d) [Peak 4d] were 145 ng/mL and 475 ng/mL. For `CN[C@]1(c2ccccc2Cl)CC[C@H](O)CC1=O` (single isomer, unassigned; peak 5c) [Peak 5c], the “Urine” value in the series “Urine concentrations of” (setting [4]) was 4 ng/mL. The same measure, in the same setting: with `CN[C@@]1(c2ccccc2Cl)CC[C@H](O)CC1=O` (single isomer, unassigned; peak 5d) [Peak 5d] the figure was 5 ng/mL.
